Test results from patent publication US9155726B2, “Method of treatment using checkpoint kinase 1 inhibitors” (ARRAY BIOPHARMA INC., priority 2009, dated 2015).
Where two headings read alike, the source gives them in different places.

Key:
[1] = Tolerability of CPT11 with Compound 2 started 12, 24 or 48 hours post CPT11 (Example 4); assay type: in vivo, nude mice; details: single agents: CPT11 100 mg/kg IP Q10Dx2; Compound 2 25 mg/kg PO BID 3 days per cycle; naive mice
[2] = system: subcutaneous HT-29 xenografts; test: TGI/tolerability experiment, CPT11 with simultaneous or 24 hour delayed Compound 1 (Example 3); assay type: in vivo, nude mice; details: single agents: CPT11 100 mg/kg IP single dose; Compound 1 50 mg/kg PO BID 3 days
Method: (§1) Female nude mice were inoculated subcutaneously with 5×10^6 HT-29 tumor cells in 1×PBS (100 μL). Twelve days later, mice were randomized into groups of 6 with an average tumor volume in each group of approximately 250 mm^3. […] Tumor size and animal body weight were measured over the course of the study on the days indicated with data points in FIG. 5. Tumor volume was calculated using the formula: volume=(width^2×length)/2.

[3] = system: subcutaneous HT-29 xenografts; test: TGI experiment, CPT11 with Compound 5 (Example 12); assay type: in vivo
Method: as §1, with “4×10^6” for “5×10^6”, “7” for “6”, “200” for “250”, “13.” for “5.”, “volume=(width^2×length)/2. No mortalities occurred over the course of this study.” for “volume=(width^2×length)/2.”

[4] = system: subcutaneous HT-29 xenografts; details: mouse, in vivo, ip, 100 mg/kg
Method: as §1, with “μL). Fourteen” for “μL). Twelve”, “of 8” for “of 6”, “approximately 260” for “approximately 250”, “FIG. 12.” for “FIG. 5.”

[5] = system: Phosphorylation of cdc2; test: Inhibition of CPT11 induced phosphorylation of cdc2 in HT-29 tumors, immunoblot (Example 6); assay type: in vivo, nude mice; details: 3 consecutive days BID versus single dose, 25 mg/kg PO, from 24 hours after CPT11 100 mg/kg
Method: Female nude mice were inoculated subcutaneously with 5×10^6 HT-29 tumor cells in 1×PBS (100 μL). Twenty four days later, mice were randomized into groups of 3 with an average tumor volume in each group of approximately 450 mm^3. […] Compound 2 was given as a single dose, or alternatively for 3 consecutive days on a BID schedule. All tumors from animals dosed with Compound 2 were harvested 2 hours post dose. Phosphorylation of cdc2 was assessed by immunoblot and normalized to total ERK expression. Results are expressed as POC.

[6] = Compound 2 exposure after single dose or 3 days dosing (Example 6); assay type: in vivo, nude mice; details: 25 mg/kg PO, from 24 hours after CPT11 100 mg/kg; t-test>0.05
[7] = system: subcutaneous HT-29 xenografts; test: TGI experiment, CPT11 with Compound 2 for 1 or 3 days (Example 5); assay type: in vivo; details: single agents: CPT11 100 mg/kg IP Q10Dx2; Compound 2 25 mg/kg PO BID
Method: as §1, with “of 8” for “of 6”, “approximately 215” for “approximately 250”, “FIG. 6.” for “FIG. 5.”, “volume=(width^2×length)/2. No mortalities occurred over the course of this study.” for “volume=(width^2×length)/2.”

[8] = system: Phosphorylation of cdc2; test: Inhibition of CPT11 induced phosphorylation of cdc2 in HT-29 tumors, immunoblot (Example 7); assay type: in vivo, nude mice; details: 5, 10 or 25 mg/kg PO BID 3 consecutive days from 24 hours after CPT11 100 mg/kg; HT-29 tumors harvested 96 hours post CPT11
Method: Female nude mice were inoculated subcutaneously with 5×10^6 HT-29 tumor cells in 1×PBS (100 μL). Twenty nine days later, mice were randomized into groups of 3 with an average tumor volume in each group of approximately 500 mm^3. […] Compound 5 was given as a single dose at 25 mg/kg, or alternatively 5, 10, or 25 mg/kg doses were given for 3 consecutive days on BID schedules. […] Phosphorylation of cdc2 was assessed by immunoblot and normalized to total ERK expression. Results are expressed as POC.

[9] = single agents: CPT11 100 mg/kg IP Q10Dx2, Compound 5 PO BID (dose of single-agent group not given)

CCc1c2c(nc3ccc(OC(=O)N4CCC(N5CCCCC5)CC4)cc13)-c1cc3c(c(=O)n1C2)COC(=O)[C@]3(O)CC [CPT11, irinotecan]
% Mortality [1]: 0%
Day of Maximum % Body Weight Loss [1]: 14 days
Maximum % Body Weight Loss [1]: 3.4%
% Mortality [2]: 0%
Day of Maximum % Body Weight Loss ([3]; mouse, in vivo, 100 mg/kg): 18 days
Maximum % Body Weight Loss ([3]; mouse, in vivo, 100 mg/kg): 6.3%
Maximum % Body Weight Loss [4]: 0.08%

N[C@@H]1CCCN(c2c(Br)cnc3[nH]cc(NC(=O)c4cccnc4)c23)C1 [Compound 1, (R)—N-(4-(3-aminopiperidin-1-yl)-5-bromo-1H-pyrrolo[2,3-b]pyridin-3-yl)nicotinamide]
Inhibition of CPT11 induced phospho-cdc2 with extended dosing [5]: Superior Inhibition

CC(C)C(=O)Nc1c[nH]c2ncc(Br)c(N3CCC[C@@H](N)C3)c12 [Compound 2, (R)—N-(4-(3-aminopiperidin-1-yl)-5-bromo-1H-pyrrolo[2,3-b]pyridin-3-yl)isobutyramide]
Day of Maximum % Body Weight Loss [1]: 17 days
Maximum % Body Weight Loss [1]: 0.3%
Compound 2 exposure, single dose versus administration for 3 days [6]: not statistically different
Day of Maximum % Body Weight Loss [7]: 3 days
Maximum % Body Weight Loss [7]: 7.2%

N[C@@H]1CCCN(c2c(Br)cnc3[nH]cc(NC(=O)C4CC4)c23)C1 [Compound 5, (R)—N-(4-(3-aminopiperidin-1-yl)-5-bromo-1H-pyrrolo[2,3-b]pyridin-3-yl)cyclopropanecarboxamide]
Inhibition of CPT11 induced phospho-cdc2 with extended dosing [8]: Dose-Related Inhibition
Day of Maximum % Body Weight Loss [3, 9]: 18 days
Maximum % Body Weight Loss [3, 9]: 2.5%
